Laboratory results: the supplement of paper PMC10307832

What was measured:
Test in all cases: relative viability (nuclei count vs DMSO), 5 days (fraction); higher = more cells survive
[1] = compound: CN(C)C[C@@H]1CCn2cc(c3ccccc32)C2=C(C(=O)NC2=O)c2cn(c3ccccc23)CCO1 [Ruboxistaurin] + Nc1ncn([C@H]2C[C@H](O)[C@@H](CO)O2)c(=O)n1 [Decitabine] (partner 2 µM)
Outline: (§1)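 Lung cancer cell lines in 1536-well plates got either a single drug or a fixed anchor-drug dose together with five library-drug doses (not always all listed) in √10 steps, by pin tool, on the day after seeding. Nuclei were counted after 5 days, and relative viability is the treated-to-vehicle ratio of nuclei counts. Values are medians of duplicate plates.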

[2] = compound: CN(C)C[C@@H]1CCn2cc(c3ccccc32)C2=C(C(=O)NC2=O)c2cn(c3ccccc23)CCO1 [Ruboxistaurin] + COc1cc2c(Oc3ccc(NC(=O)C4(C(=O)Nc5ccc(F)cc5)CC4)cc3F)ccnc2cc1OCCCN1CCOCC1 [Foretinib] (partner 0.25 µM)
Outline: as §1

[3] = compound: CN(C)C[C@@H]1CCn2cc(c3ccccc32)C2=C(C(=O)NC2=O)c2cn(c3ccccc23)CCO1 [Ruboxistaurin] + Cc1cc(Nc2cc(N3CCN(C)CC3)nc(Sc3ccc(NC(=O)C4CC4)cc3)n2)n[nH]1 [Tozasertib] (partner 0.1 µM)
Outline: as §1

[4] = compound: CN(C)C[C@@H]1CCn2cc(c3ccccc32)C2=C(C(=O)NC2=O)c2cn(c3ccccc23)CCO1 [Ruboxistaurin] + CC1(C)CCC(c2ccc(Cl)cc2)=C(CN2CCN(c3ccc(C(=O)NS(=O)(=O)c4ccc(N[C@H](CCN5CCOCC5)CSc5ccccc5)c(S(=O)(=O)C(F)(F)F)c4)cc3)CC2)C1 [Navitoclax] (partner 0.5 µM)
Outline: as §1

[5] = compound: CN(C)C[C@@H]1CCn2cc(c3ccccc32)C2=C(C(=O)NC2=O)c2cn(c3ccccc23)CCO1 [Ruboxistaurin] + Cc1nc(Nc2ncc(C(=O)Nc3c(C)cccc3Cl)s2)cc(N2CCN(CCO)CC2)n1 [Dasatinib] (partner 0.075 µM)
Outline: as §1

Cell Line | relative viability ([1]; first compound 0.08 µM) | relative viability ([1]; first compound 0.8 µM) | relative viability ([1]; first compound 2.53 µM) | relative viability ([1]; first compound 8 µM) | relative viability ([2]; first compound 0.08 µM) | relative viability ([2]; first compound 0.8 µM) | relative viability ([2]; first compound 2.53 µM) | relative viability ([2]; first compound 8 µM) | relative viability ([3]; first compound 0.08 µM) | relative viability ([3]; first compound 0.8 µM) | relative viability ([3]; first compound 2.53 µM) | relative viability ([3]; first compound 8 µM) | relative viability ([4]; first compound 0.08 µM) | relative viability ([4]; first compound 0.8 µM) | relative viability ([4]; first compound 2.53 µM) | relative viability ([4]; first compound 8 µM) | relative viability ([5]; first compound 0.08 µM) | relative viability ([5]; first compound 0.8 µM) | relative viability ([5]; first compound 2.53 µM) | relative viability ([5]; first compound 8 µM)
201T | 0.858 | 0.834 | 0.824 | 0.914 | 1.17 | 1.02 | 1.19 | 0.995 | 0.993 | 0.815 | 0.976 | 0.825 | 1.21 | 1.18 | 1.24 | 1.25 | 0.572 | 0.536 | 0.603 | 0.559
A549 | 0.264 | 0.217 | 0.307 | 0.305 | 1.04 | 0.935 | 1.06 | 0.962 |  |  |  |  | 1.23 | 1.18 | 1.16 | 0.99 |  |  |  | 
A-427 | 0.605 | 0.527 | 0.564 | 0.548 | 1.01 | 0.952 | 0.928 | 0.659 | 0.19 | 0.184 | 0.232 | 0.157 | 0.947 | 0.816 | 0.831 | 0.752 | 0.677 | 0.639 | 0.675 | 0.374
ABC-1 | 1.19 | 0.696 | 1.26 | 0.942 | 1.21 | 1.13 | 1.26 | 1.11 | 0.178 | 0.163 | 0.184 | 0.22 |  |  |  |  | 0.638 | 0.56 | 0.633 | 0.465
BEN | 0.815 | 0.698 | 0.724 | 0.549 | 0.725 | 0.722 | 0.712 | 0.49 | 0.492 | 0.45 | 0.498 | 0.483 | 0.0424 | 0.0646 | 0.0707 | 0.114 | 0.316 | 0.297 | 0.307 | 0.298
CAL-12T |  |  |  |  | 1.28 | 1.18 | 1.16 | 1.16 | 0.371 | 0.292 | 0.301 | 0.211 | 1.22 | 1.28 | 1.31 | 1.26 | 0.339 | 0.324 | 0.301 | 0.28
COR-L23 | 0.427 | 0.384 | 0.467 | 0.487 | 1.06 | 0.951 | 1.11 | 1.05 | 0.221 | 0.167 | 0.202 | 0.153 | 1.16 | 1.01 | 1.03 | 0.998 | 0.489 | 0.399 | 0.549 | 0.602
COR-L 105 | 0.618 | 0.595 | 0.681 | 0.611 | 1.37 | 0.826 | 1.1 | 0.87 | 0.385 | 0.367 | 0.304 | 0.254 | 0.741 | 0.64 | 0.776 | 0.807 | 0.352 | 0.236 | 0.362 | 0.262
ChaGo-K-1 | 0.592 | 0.487 | 0.53 | 0.535 | 0.916 | 0.888 | 0.965 | 0.912 | 0.225 | 0.242 | 0.231 | 0.211 | 1.38 | 1.08 | 0.925 | 0.703 | 0.564 | 0.611 | 0.636 | 0.478
EKVX | 0.334 | 0.246 | 0.34 | 0.426 | 0.898 | 0.694 | 0.848 | 0.738 | 0.411 | 0.401 | 0.415 | 0.367 | 0.981 | 0.903 | 1.03 | 0.882 | 0.641 | 0.476 | 0.551 | 0.579
EMC-BAC-2 | 0.968 | 0.949 | 0.979 | 0.842 | 1.03 | 0.872 | 1.03 | 0.51 | 0.29 | 0.254 | 0.272 | 0.17 | 1.28 | 1.08 | 1.11 | 1.05 | 0.328 | 0.262 | 0.256 | 0.138
EPLC-272H | 0.473 | 0.289 | 0.354 | 0.341 | 0.853 | 0.548 | 0.703 | 0.472 | 0.205 | 0.247 | 0.253 | 0.247 | 1.28 | 0.96 | 1.41 | 1.18 | 0.354 | 0.371 | 0.342 | 0.282
H3255 | 0.608 | 0.54 | 0.603 | 0.538 | 0.849 | 0.867 | 0.879 | 0.876 | 0.658 | 0.603 | 0.714 | 0.836 | 0.548 | 0.438 | 0.519 | 0.478 | 0.495 | 0.353 | 0.347 | 0.335
HARA | 0.502 | 0.496 | 0.567 | 0.592 | 0.842 | 0.865 | 0.993 | 0.813 | 0.0939 | 0.101 | 0.12 | 0.102 | 1.2 | 1.16 | 1.14 | 1.14 | 0.216 | 0.232 | 0.228 | 0.3
